# Results as given in article PMC7588042.
# What was measured:
# [1] = double amidation of dimethyl bis(oxyacetate) diester with alpha,omega-diamine (aminolysis of methyl ester, no additive), 1 bar, 168 h; conditions: the molecule shown is the open-chain precursor, MeOH, 30.0 mM, 25.0 °C, 2 steps, scale: mol% diamide
# [2] = double amidation of dimethyl bis(oxyacetate) diester with alpha,omega-diamine (aminolysis of methyl ester, no additive), 10 kbar, 24 h; conditions: the molecule shown is the open-chain precursor, MeOH, 30.0 mM, 25.0 °C, 2 steps, scale: mol% diamide
structure (smiles),measurement,setting,value
"COC(=O)COc1ccc(OCC(=O)NCCCOCCCCOCCCN)cc1 [3{3,2}]","ring closure, monomer to dimer",[1]; 24-membered ring,85
same,"ring closure, monomer to dimer",[2]; 24-membered ring,81
"COC(=O)COc1cccc(OCC(=O)NCCCOCCOCCOCCCN)c1 [3{2,3}]","ring closure, monomer to dimer",[1]; 24-membered ring,95
same,"ring closure, monomer to dimer",[2]; 24-membered ring,78
"COC(=O)COc1ccccc1OCC(=O)NCCOCCN [3{1,1}]","ring closure, monomer to dimer",[1]; 15-membered ring,99.5
same,"ring closure, monomer to dimer",[2]; 15-membered ring,95
"COC(=O)COc1ccc(OCC(=O)NCCOCCN)cc1 [3{3,1}]","ring closure, monomer to dimer",[1]; 17-membered ring,33
same,"ring closure, monomer to dimer",[2]; 17-membered ring,16.5
"COC(=O)COc1cccc(OCC(=O)NCCCOCCCCOCCCN)c1 [3{2,2}]","ring closure, monomer to dimer",[1]; 23-membered ring,85
same,"ring closure, monomer to dimer",[2]; 23-membered ring,76.5
"COC(=O)COc1cccc(OCC(=O)NCCOCCN)c1 [3{2,1}]","ring closure, monomer to dimer",[1]; 16-membered ring,77
same,"ring closure, monomer to dimer",[2]; 16-membered ring,68.5
"COC(=O)COc1ccccc1OCC(=O)NCCCOCCCCOCCCN [3{1,2}]","ring closure, monomer to dimer",[1]; 22-membered ring,85
same,"ring closure, monomer to dimer",[2]; 22-membered ring,78
"COC(=O)COc1ccccc1OCC(=O)NCCCOCCOCCOCCCN [3{1,3}]","ring closure, monomer to dimer",[1]; 23-membered ring,88
same,"ring closure, monomer to dimer",[2]; 23-membered ring,76
"COC(=O)COc1ccc(OCC(=O)NCCCOCCOCCOCCCN)cc1 [3{3,3}]","ring closure, monomer to dimer",[1]; 25-membered ring,89
same,"ring closure, monomer to dimer",[2]; 25-membered ring,79
